Counter-ions that a name gives are not always drawn.
System: human JAK1 (a.a. 837-1142)
Assay: In vitro JAK kinase assay (HTRF), JAK1
Assay type: biochemical
Conditions: ratio of IC50 values at 1 mM ATP
Method: The catalytic activity of JAK1, JAK2 or JAK3 was assayed by measuring the phosphorylation of a biotinylated peptide. The phosphorylated peptide was detected by homogenous time resolved fluorescence (HTRF). […] Reactions were carried out at room temperature for 1 hour and then stopped with 20 μL 45 mM EDTA, 300 nM SA-APC, 6 nM Eu-Py20 in assay buffer (Perkin Elmer, Boston, Mass.). Binding to the Europium labeled antibody took place for 40 minutes and HTRF signal was measured on a Fusion plate reader (Perkin Elmer, Boston, Mass.).

Row | JAK2/JAK1 | Structure (SMILES)
1 | >10 | Cc1n[nH]cc1-c1cnn(C2(CC#N)CN(c3cnc(C(=O)NC(C)C)cn3)C2)c1 [Example 2, 5-[3-(Cyanomethyl)-3-(3′-methyl-1H,1′H-4,4′-bipyrazol-1-yl)azetidin-1-yl]-N-isopropylpyrazine-2-carboxamide trifluoroacetate]
2 | >10 | C[C@H](NC(=O)c1cc(F)c(N2CC(CC#N)(n3cc(-c4cn[nH]c4)cn3)C2)cc1F)C(F)(F)F [Example 5, 4-[3-(1H,1′H-4,4′-Bipyrazol-1-yl)-3-(cyanomethyl)azetidin-1-yl]-2,5-difluoro-N-[(1S)-2,2,2-trifluoro-1-methylethyl]benzamide trifluoroacetate]
3 | >10 | Cc1[nH]ncc1-c1cnn(C2(CC#N)CN(c3cnc(C(=O)N[C@@H](C)C(F)(F)F)cn3)C2)c1 [Example 1, 5-[3-(Cyanomethyl)-3-(3′-methyl-1H,1′H-4,4′-bipyrazol-1-yl)azetidin-1-yl]-N-[(1S)-2,2,2-trifluoro-1-methylethyl]pyrazine-2-carboxamide trifluoroacetate]
4 | >10 | Cc1n[nH]cc1-c1cn(C2(CC#N)CN(c3cnc(C(=O)NC(C)C)cn3)C2)nc1C [Example 6, 5-[3-(Cyanomethyl)-3-(3,3′-dimethyl-1H,1′H-4,4′-bipyrazol-1-yl)azetidin-1-yl]-N-isopropylpyrazine-2-carboxamide trifluoroacetate]

Reference: patent publication US11591318B2, “Bipyrazole derivatives as JAK inhibitors” (Incyte Corporation, priority 2013, dated 2023)
